Reference: PubChem BioAssay (NCI)
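A five-concentration, 48-hour dose response in 96-well plates underlies each endpoint, interpolated linearly between surrounding concentrations. TGI: total growth inhibition.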

Experiments:
Test in all cases: NCI anticancer screen, dose series, 48 h
786-0 renal = system: 786-0 renal
A498 renal = system: A498 renal
A549 NSCLC = system: A549 NSCLC
ACHN renal = system: ACHN renal
BT-549 breast = system: BT-549 breast
CAKI-1 renal = system: CAKI-1 renal
CCRF-CEM leukemia = system: CCRF-CEM leukemia
COLO 205 colon = system: COLO 205 colon
DU-145 prostate = system: DU-145 prostate
EKVX NSCLC = system: EKVX NSCLC
HCT-116 colon = system: HCT-116 colon
HCT-15 colon = system: HCT-15 colon
HL-60(TB) leukemia = system: HL-60(TB) leukemia
HOP-62 NSCLC = system: HOP-62 NSCLC
HOP-92 NSCLC = system: HOP-92 NSCLC
HS 578T breast = system: HS 578T breast
HT29 colon = system: HT29 colon
IGROV1 ovarian = system: IGROV1 ovarian
K-562 leukemia = system: K-562 leukemia
LOX IMVI melanoma = system: LOX IMVI melanoma
M14 melanoma = system: M14 melanoma
MALME-3M melanoma = system: MALME-3M melanoma
MCF7 breast = system: MCF7 breast
MDA-MB-231 breast = system: MDA-MB-231 breast
MDA-MB-435 = system: MDA-MB-435
MDA-N = system: MDA-N
MOLT-4 leukemia = system: MOLT-4 leukemia
NCI-H226 lung = system: NCI-H226 lung
NCI-H23 lung = system: NCI-H23 lung
NCI/ADR-RES ovarian = system: NCI/ADR-RES ovarian
OVCAR-3 ovarian = system: OVCAR-3 ovarian
OVCAR-4 ovarian = system: OVCAR-4 ovarian
OVCAR-5 ovarian = system: OVCAR-5 ovarian
OVCAR-8 ovarian = system: OVCAR-8 ovarian
PC-3 prostate = system: PC-3 prostate
RPMI-8226 leukemia = system: RPMI-8226 leukemia
RXF 393 renal = system: RXF 393 renal
SF-268 CNS = system: SF-268 CNS
SF-295 CNS = system: SF-295 CNS
SF-539 CNS = system: SF-539 CNS
SK-MEL-2 melanoma = system: SK-MEL-2 melanoma
SK-MEL-28 melanoma = system: SK-MEL-28 melanoma
SK-MEL-5 melanoma = system: SK-MEL-5 melanoma
SK-OV-3 ovarian = system: SK-OV-3 ovarian
SN12C renal = system: SN12C renal
SNB-19 CNS = system: SNB-19 CNS
SNB-75 CNS = system: SNB-75 CNS
SR leukemia = system: SR leukemia
T-47D breast = system: T-47D breast
TK-10 renal = system: TK-10 renal
U251 CNS = system: U251 CNS
UACC-257 melanoma = system: UACC-257 melanoma
UACC-62 melanoma = system: UACC-62 melanoma
UO-31 renal = system: UO-31 renal
HCC-2998 colon = system: HCC-2998 colon
KM12 colon = system: KM12 colon
NCI-H460 lung = system: NCI-H460 lung
NCI-H522 lung = system: NCI-H522 lung
SW-620 colon = system: SW-620 colon

**Q.** Which results are given for CC1(C)CC(C2=NCCO2)CC(C)(C)N1?
**A.** TGI (786-0 renal): > 100 µM; TGI (A498 renal): > 100 µM; TGI (A549 NSCLC): > 100 µM; TGI (ACHN renal): > 100 µM; TGI (BT-549 breast): > 100 µM; TGI (CAKI-1 renal): > 100 µM; TGI (CCRF-CEM leukemia): > 100 µM; TGI (COLO 205 colon): > 100 µM; TGI (DU-145 prostate): > 100 µM; TGI (EKVX NSCLC): > 100 µM; TGI (HCT-116 colon): > 100 µM; TGI (HCT-15 colon): > 100 µM; TGI (HL-60(TB) leukemia): > 100 µM; TGI (HOP-62 NSCLC): > 100 µM; TGI (HOP-92 NSCLC): > 100 µM; TGI (HS 578T breast): > 100 µM; TGI (HT29 colon): > 100 µM; TGI (IGROV1 ovarian): > 100 µM; TGI (K-562 leukemia): > 100 µM; TGI (LOX IMVI melanoma): > 100 µM; TGI (M14 melanoma): > 100 µM; TGI (MALME-3M melanoma): > 100 µM; TGI (MCF7 breast): 61.1 µM; TGI (MDA-MB-231 breast): > 100 µM; TGI (MDA-MB-435): > 100 µM; TGI (MDA-N): > 100 µM; TGI (MOLT-4 leukemia): > 100 µM; TGI (NCI-H226 lung): > 100 µM; TGI (NCI-H23 lung): > 100 µM; TGI (NCI/ADR-RES ovarian): > 100 µM; TGI (OVCAR-3 ovarian): > 100 µM; TGI (OVCAR-4 ovarian): > 100 µM; TGI (OVCAR-5 ovarian): > 100 µM; TGI (OVCAR-8 ovarian): > 100 µM; TGI (PC-3 prostate): > 100 µM; TGI (RPMI-8226 leukemia): > 100 µM; TGI (RXF 393 renal): > 100 µM; TGI (SF-268 CNS): > 100 µM; TGI (SF-295 CNS): > 100 µM; TGI (SF-539 CNS): > 100 µM; TGI (SK-MEL-2 melanoma): > 100 µM; TGI (SK-MEL-28 melanoma): > 100 µM; TGI (SK-MEL-5 melanoma): > 100 µM; TGI (SK-OV-3 ovarian): > 100 µM; TGI (SN12C renal): > 100 µM; TGI (SNB-19 CNS): > 100 µM; TGI (SNB-75 CNS): > 100 µM; TGI (SR leukemia): > 100 µM; TGI (T-47D breast): > 100 µM; TGI (TK-10 renal): > 100 µM; TGI (U251 CNS): > 100 µM; TGI (UACC-257 melanoma): > 100 µM; TGI (UACC-62 melanoma): > 100 µM; TGI (UO-31 renal): > 100 µM

**Q.** With Cn1c(=O)c2c(nc3n(CCCCl)c(=O)ccn23)n(C)c1=O as the molecule, how does the TGI (786-0 renal) read?
**A.** > 100 µM

**Q.** What about the TGI (A498 renal) of the same molecule?
**A.** > 100 µM

**Q.** And the TGI (A549 NSCLC)?
**A.** > 100 µM

**Q.** What about the TGI (ACHN renal) of the same molecule?
**A.** > 100 µM

**Q.** And the TGI (BT-549 breast)?
**A.** > 100 µM

**Q.** What about the TGI (CAKI-1 renal) of the same molecule?
**A.** > 100 µM

**Q.** And the TGI (CCRF-CEM leukemia)?
**A.** > 100 µM

**Q.** And the TGI (COLO 205 colon)?
**A.** > 100 µM

**Q.** And the TGI (DU-145 prostate)?
**A.** > 100 µM

**Q.** What about the TGI (EKVX NSCLC) of the same molecule?
**A.** > 100 µM

**Q.** And the TGI (HCC-2998 colon)?
**A.** > 100 µM

**Q.** And the TGI (HCT-116 colon)?
**A.** > 100 µM

**Q.** What about the TGI (HCT-15 colon) of the same molecule?
**A.** > 100 µM

**Q.** What about the TGI (HL-60(TB) leukemia) of the same molecule?
**A.** > 100 µM

**Q.** And the TGI (HOP-62 NSCLC)?
**A.** > 100 µM

**Q.** And the TGI (HOP-92 NSCLC)?
**A.** > 100 µM

**Q.** What about the TGI (HS 578T breast) of the same molecule?
**A.** > 100 µM

**Q.** And the TGI (HT29 colon)?
**A.** > 100 µM

**Q.** What about the TGI (IGROV1 ovarian) of the same molecule?
**A.** > 100 µM

**Q.** And the TGI (K-562 leukemia)?
**A.** > 100 µM

**Q.** And the TGI (KM12 colon)?
**A.** > 100 µM

**Q.** And the TGI (LOX IMVI melanoma)?
**A.** > 100 µM

**Q.** What about the TGI (M14 melanoma) of the same molecule?
**A.** > 100 µM

**Q.** And the TGI (MCF7 breast)?
**A.** > 100 µM

**Q.** What about the TGI (MDA-MB-231 breast) of the same molecule?
**A.** > 100 µM

**Q.** And the TGI (MDA-MB-435)?
**A.** > 100 µM

**Q.** What about the TGI (MDA-N) of the same molecule?
**A.** > 100 µM

**Q.** What about the TGI (MOLT-4 leukemia) of the same molecule?
**A.** > 100 µM

**Q.** What about the TGI (NCI-H226 lung) of the same molecule?
**A.** > 100 µM

**Q.** What about the TGI (NCI-H23 lung) of the same molecule?
**A.** > 100 µM

**Q.** And the TGI (NCI-H460 lung)?
**A.** > 100 µM

**Q.** And the TGI (NCI-H522 lung)?
**A.** > 100 µM

**Q.** What about the TGI (NCI/ADR-RES ovarian) of the same molecule?
**A.** > 100 µM

**Q.** What about the TGI (OVCAR-3 ovarian) of the same molecule?
**A.** > 100 µM

**Q.** What about the TGI (OVCAR-4 ovarian) of the same molecule?
**A.** > 100 µM

**Q.** What about the TGI (OVCAR-5 ovarian) of the same molecule?
**A.** > 100 µM

**Q.** And the TGI (OVCAR-8 ovarian)?
**A.** > 100 µM

**Q.** And the TGI (PC-3 prostate)?
**A.** > 100 µM

**Q.** And the TGI (RPMI-8226 leukemia)?
**A.** > 100 µM

**Q.** What about the TGI (RXF 393 renal) of the same molecule?
**A.** > 100 µM

**Q.** What about the TGI (SF-268 CNS) of the same molecule?
**A.** > 100 µM

**Q.** What about the TGI (SF-295 CNS) of the same molecule?
**A.** > 100 µM

**Q.** What about the TGI (SF-539 CNS) of the same molecule?
**A.** > 100 µM

**Q.** What about the TGI (SK-MEL-2 melanoma) of the same molecule?
**A.** > 100 µM

**Q.** And the TGI (SK-MEL-28 melanoma)?
**A.** > 100 µM

**Q.** And the TGI (SK-MEL-5 melanoma)?
**A.** > 100 µM

**Q.** And the TGI (SK-OV-3 ovarian)?
**A.** > 100 µM

**Q.** What about the TGI (SN12C renal) of the same molecule?
**A.** > 100 µM

**Q.** And the TGI (SNB-19 CNS)?
**A.** > 100 µM

**Q.** What about the TGI (SNB-75 CNS) of the same molecule?
**A.** > 100 µM

**Q.** What about the TGI (SR leukemia) of the same molecule?
**A.** > 100 µM

**Q.** What about the TGI (SW-620 colon) of the same molecule?
**A.** > 100 µM

**Q.** What about the TGI (T-47D breast) of the same molecule?
**A.** > 100 µM

**Q.** And the TGI (TK-10 renal)?
**A.** > 100 µM

**Q.** And the TGI (U251 CNS)?
**A.** > 100 µM

**Q.** And the TGI (UACC-257 melanoma)?
**A.** > 100 µM

**Q.** And the TGI (UACC-62 melanoma)?
**A.** > 100 µM

**Q.** And the TGI (UO-31 renal)?
**A.** > 100 µM
